Assay results: ChEMBL document CHEMBL5126575, “Synthesis of a new series of quinoline/pyridine indole-3-sulfonamide hybrids as selective carbonic anhydrase IX inhibitors” (Bioorg Med Chem Lett, 2022)
Blank lines part the entries; values can stand above or below the compound they belong to.

What was measured:
[1] = target: Carbonic anhydrase 1 (Homo sapiens, UniProt P00915); assay: Inhibition of human carbonic anhydrase 1 by stopped flow CO2 assay
[2] = target: Carbonic anhydrase 2 (Homo sapiens, UniProt P00918); assay: Inhibition of human carbonic anhydrase 2 by stopped flow CO2 assay
[3] = target: Carbonic anhydrase 9 (Homo sapiens, UniProt Q16790); assay: Inhibition of human carbonic anhydrase 9 by stopped flow CO2 assay
[4] = target: Carbonic anhydrase 12 (Homo sapiens, UniProt O43570)
Chain of Carbonic anhydrase 12 (O43570 whole entry): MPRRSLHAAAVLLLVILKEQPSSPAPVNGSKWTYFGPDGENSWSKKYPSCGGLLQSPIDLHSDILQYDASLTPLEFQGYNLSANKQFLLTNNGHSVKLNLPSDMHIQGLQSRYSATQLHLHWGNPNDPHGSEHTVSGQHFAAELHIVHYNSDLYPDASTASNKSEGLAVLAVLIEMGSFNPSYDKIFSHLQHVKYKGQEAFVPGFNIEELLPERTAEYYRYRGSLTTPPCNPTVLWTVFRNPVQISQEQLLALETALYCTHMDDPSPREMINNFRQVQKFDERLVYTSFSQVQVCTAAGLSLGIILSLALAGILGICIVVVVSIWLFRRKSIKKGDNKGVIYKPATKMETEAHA
Description: Inhibition of human carbonic anhydrase 12 by stopped flow CO2 assay

Chain of Carbonic anhydrase 1 (P00915 whole entry): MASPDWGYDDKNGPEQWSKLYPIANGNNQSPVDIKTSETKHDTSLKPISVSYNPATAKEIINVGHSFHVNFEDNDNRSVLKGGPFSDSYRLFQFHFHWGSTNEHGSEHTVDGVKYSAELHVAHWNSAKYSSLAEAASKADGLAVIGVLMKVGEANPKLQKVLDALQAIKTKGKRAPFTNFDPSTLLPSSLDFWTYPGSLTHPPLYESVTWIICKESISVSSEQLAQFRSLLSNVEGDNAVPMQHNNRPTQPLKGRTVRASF

Ki [1]: > 100 µM | Ki [2]: > 100 µM | Ki [3]: > 100 µM | Ki [4]: > 100 µM
Structure (SMILES): CCn1cc(S(N)(=O)=O)c2cc(NC(=O)c3cc(-c4ccccc4)nc4ccccc34)ccc21

Ki [1]: > 100 µM | Ki [3]: 5.56 µM
Structure (SMILES): CCn1cc(S(N)(=O)=O)c2cc(NC(=O)c3cc(-c4ccc(Cl)cc4)nc4ccccc34)ccc21

Ki [1]: > 100 µM | Ki [3]: 18.5 µM | Ki [4]: > 100 µM
Structure (SMILES): Cn1cc(S(N)(=O)=O)c2cc(NC(=O)c3cc(-c4ccc(Cl)cc4)nc4ccccc34)ccc21

Ki [1]: > 100 µM | Ki [3]: 1.47 µM
Structure (SMILES): CCn1cc(S(N)(=O)=O)c2cc(NC(=O)c3cc(-c4ccc(Cl)cc4Cl)nc4ccccc34)ccc21

Ki [1]: > 100 µM | Ki [3]: 8.65 µM
Structure (SMILES): CCn1cc(S(N)(=O)=O)c2cc(NC(=O)c3cc(-c4ccccc4C)nc4ccc(OC)cc34)ccc21

Ki [1]: > 100 µM | Ki [3]: 7.51 µM
Structure (SMILES): CCn1cc(S(N)(=O)=O)c2cc(NC(=O)c3cc(-c4ccc5c(c4)OCO5)nc4ccccc34)ccc21

Ki [1]: > 100 µM | Ki [2]: > 100 µM | Ki [3]: 40.2 µM | Ki [4]: > 100 µM
Structure (SMILES): CCn1cc(S(N)(=O)=O)c2cc(NC(=O)c3cc(-c4ccccc4)nc4ccc(OC)cc34)ccc21

Ki [1]: > 100 µM | Ki [2]: > 100 µM | Ki [3]: 35.8 µM | Ki [4]: > 100 µM
Structure (SMILES): CCn1cc(S(N)(=O)=O)c2cc(NC(=O)c3cc(-c4ccc(OC)c(OC)c4)nc4ccccc34)ccc21

Ki [1]: > 100 µM | Ki [3]: 1.57 µM
Structure (SMILES): CCn1cc(S(N)(=O)=O)c2cc(NC(=O)c3cc(-c4ccccc4Cl)nc4ccccc34)ccc21

The next lines start with the compound.

Structure (SMILES): CCn1cc(S(N)(=O)=O)c2cc(NC(=O)c3ccncc3)ccc21
Ki [1]: > 100 µM | Ki [2]: > 100 µM | Ki [3]: 21.6 µM | Ki [4]: > 100 µM

Structure (SMILES): CCn1cc(S(N)(=O)=O)c2cc(NC(=O)c3cc(-c4cc(Cl)cc(Cl)c4)nc4ccc(OC)cc34)ccc21
Ki [1]: > 100 µM | Ki [3]: 4.23 µM

Structure (SMILES): Cn1cc(S(N)(=O)=O)c2cc(NC(=O)c3ccnc(N)c3)ccc21
Ki [1]: > 100 µM | Ki [2]: > 100 µM | Ki [3]: 34.6 µM | Ki [4]: > 100 µM

Structure (SMILES): Cn1cc(S(N)(=O)=O)c2cc(NC(=O)c3ccnc(O)c3)ccc21
Ki [1]: > 100 µM | Ki [2]: > 100 µM | Ki [3]: 9.05 µM

Structure (SMILES): CCn1cc(S(N)(=O)=O)c2cc(NC(=O)c3ccnc(N)c3)ccc21
Ki [1]: > 100 µM | Ki [2]: > 100 µM | Ki [3]: 19.8 µM | Ki [4]: > 100 µM

Structure (SMILES): CCn1cc(S(N)(=O)=O)c2cc(NC(=O)c3cc(-c4ccccc4OC)nc4ccc(OC)cc34)ccc21
Ki [1]: > 100 µM | Ki [2]: > 100 µM | Ki [3]: 26.7 µM | Ki [4]: > 100 µM

Structure (SMILES): Cn1cc(S(N)(=O)=O)c2cc(NC(=O)c3ccnc(Br)c3)ccc21
Ki [1]: > 100 µM | Ki [2]: > 100 µM | Ki [3]: 8.16 µM

Structure (SMILES): COc1ccc2nc(-c3ccccc3C)cc(C(=O)Nc3ccc4c(c3)c(S(N)(=O)=O)cn4C)c2c1
Ki [1]: > 100 µM | Ki [3]: 16.3 µM | Ki [4]: > 100 µM

Structure (SMILES): Cn1cc(S(N)(=O)=O)c2cc(NC(=O)c3cc(-c4ccccc4)nc4ccccc34)ccc21
Ki [1]: > 100 µM | Ki [2]: > 100 µM | Ki [3]: 82.4 µM | Ki [4]: > 100 µM

Structure (SMILES): Cn1cc(S(N)(=O)=O)c2cc(NC(=O)c3cc(Cl)nc(Br)c3)ccc21
Ki [1]: > 100 µM | Ki [2]: > 100 µM | Ki [3]: 15.9 µM | Ki [4]: > 100 µM

Structure (SMILES): COc1ccc2nc(-c3ccccc3)cc(C(=O)Nc3ccc4c(c3)c(S(N)(=O)=O)cn4C)c2c1
Ki [1]: > 100 µM | Ki [2]: > 100 µM | Ki [3]: 45 µM | Ki [4]: > 100 µM

Structure (SMILES): CCn1cc(S(N)(=O)=O)c2cc(NC(=O)c3cc(Cl)nc(Br)c3)ccc21
Ki [1]: > 100 µM | Ki [3]: 8.78 µM

Structure (SMILES): COc1ccc(-c2cc(C(=O)Nc3ccc4c(c3)c(S(N)(=O)=O)cn4C)c3ccccc3n2)cc1OC
Ki [1]: > 100 µM | Ki [2]: > 100 µM | Ki [3]: 69.3 µM | Ki [4]: > 100 µM

Structure (SMILES): Cn1cc(S(N)(=O)=O)c2cc(NC(=O)c3ccnc(Cl)c3)ccc21
Ki [1]: > 100 µM | Ki [2]: > 100 µM | Ki [3]: 5.93 µM

Structure (SMILES): CCn1cc(S(N)(=O)=O)c2cc(NC(=O)c3ccnc(O)c3)ccc21
Ki [1]: > 100 µM | Ki [2]: > 100 µM | Ki [3]: 5.33 µM

Structure (SMILES): COc1ccc2nc(-c3ccccc3OC)cc(C(=O)Nc3ccc4c(c3)c(S(N)(=O)=O)cn4C)c2c1
Ki [1]: > 100 µM | Ki [2]: > 100 µM | Ki [3]: 38.9 µM | Ki [4]: > 100 µM

Structure (SMILES): CCn1cc(S(N)(=O)=O)c2cc(NC(=O)c3ccnc(Br)c3)ccc21
Ki [1]: > 100 µM | Ki [3]: 8.21 µM

Structure (SMILES): CCn1cc(S(N)(=O)=O)c2cc(NC(=O)c3cc(-c4ccc(OC)cc4OC)nc4ccc(OC)cc34)ccc21
Ki [1]: > 100 µM | Ki [3]: 59.5 µM | Ki [4]: > 100 µM

Structure (SMILES): CCn1cc(S(N)(=O)=O)c2cc(NC(=O)c3ccnc(Cl)c3)ccc21
Ki [1]: > 100 µM | Ki [3]: 5.93 µM
